The record followed here is ChEMBL document CHEMBL1201862, “PubChem BioAssay data set” (2004).

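Each compound was tested at five concentrations against cells in 96-well plates for 48 hours. GI50: concentration for 50% inhibition of growth.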 Activity calls are given as the source filed them. Rule as the data show it: active = GI50 up to about 1.1 µM and inactive = higher.

Test systems include SNB-19; OVCAR-8; A549; CCRF-CEM; IGROV-1; Hs-578T; MDA-N; TK-10; SF-268; HOP-92; SK-MEL-28; RXF 393; ACHN; HOP-62; HCT-116; NCI-H460; A498; OVCAR-3; NCI-H226; KM12.
Holding throughout (test): NCI-60 cell line screen, 48 h

Take `OC1[C@H](O)CN(OCc2ccccc2)C[C@@H]1O` (stereo not given in full): the GI50 in the assay on SNB-19, in the assay with OVCAR-8, in the assay with A549, in the assay with CCRF-CEM, in the assay on IGROV-1 and with Hs-578T was > 100 µM (inactive) in each case. Also, the GI50 in the assay on MDA-N, in the assay on TK-10, in the assay on SF-268, in the assay on HOP-92, with SK-MEL-28 and in the assay on RXF 393 was > 100 µM (inactive) in each case. The GI50 in the assay on ACHN, in the assay with HOP-62, in the assay with HCT-116, in the assay on NCI-H460, in the assay with A498 and in the assay on OVCAR-3 was > 100 µM (inactive) throughout. Also, the GI50 in the assay with NCI-H226 and with KM12 was > 100 µM (inactive) in each case.

As to `CC(=O)CC(O)(C(F)(F)Cl)C(F)(F)Cl`, the GI50 with SNB-19, in the assay with OVCAR-8, in the assay with A549, with CCRF-CEM, in the assay on IGROV-1 and in the assay with Hs-578T was > 10 µM (inactive) throughout. In addition, the GI50 in the assay on MDA-N, in the assay on TK-10, in the assay with SF-268, with HOP-92, in the assay with SK-MEL-28 and in the assay with RXF 393 was > 10 µM (inactive) in each case. The GI50 in the assay with ACHN, in the assay on HOP-62, in the assay with HCT-116, with NCI-H460, with A498 and in the assay with OVCAR-3 was > 10 µM (inactive) in each case. Besides, the GI50 in the assay on NCI-H226 and in the assay with KM12 was > 10 µM (inactive) in each case.

With `Cc1cccc2c1c(=O)c1c(O)cc3c(c1n2C)C=CC(C)(C)O3`, the GI50 is > 100 µM (inactive) in the assay on SNB-19; > 100 µM (inactive) with OVCAR-8; > 100 µM (inactive) in the assay on A549; > 100 µM (inactive) in the assay on CCRF-CEM; 62.7 µM (inactive) in the assay on IGROV-1; > 100 µM (inactive) in the assay with Hs-578T. The GI50 in the assay on MDA-N was > 100 µM (inactive); in the assay on TK-10, 64.9 µM (inactive); in the assay on SF-268, > 100 µM (inactive); in the assay with HOP-92 it was > 100 µM (inactive); in the assay with SK-MEL-28, > 100 µM (inactive); in the assay on RXF 393, > 100 µM (inactive). Moreover, the GI50 in the assay with ACHN, in the assay with HOP-62, in the assay with HCT-116, in the assay with NCI-H460, in the assay with A498 and with OVCAR-3 was > 100 µM (inactive) each time. Also, the GI50 was 96.4 µM (inactive) with NCI-H226 and 70.3 µM (inactive) in the assay with KM12.

Consider `O=C(Cl)C1=C(c2ccccc2)C1c1ccccc1` (stereo not given), for which the GI50 with SNB-19, with OVCAR-8, with A549, in the assay with CCRF-CEM, in the assay with IGROV-1 and in the assay with Hs-578T was > 100 µM (inactive) throughout. For the same compound, the GI50 in the assay on MDA-N, in the assay on TK-10, in the assay on SF-268, in the assay on HOP-92, in the assay on SK-MEL-28 and in the assay with RXF 393 was > 100 µM (inactive) each time. For the same compound, the GI50 with ACHN, in the assay on HOP-62, in the assay with HCT-116, in the assay on NCI-H460, in the assay with A498 and in the assay with OVCAR-3 was > 100 µM (inactive) in each case. In addition, the GI50 in the assay on NCI-H226 and with KM12 was > 100 µM (inactive) throughout.

Consider `CCN(CC)CCn1ccc(=O)c2cc3c(=O)ccn(CCN(CC)CC)c3c(C)c21`, for which the GI50 was 5.15 µM (inactive) with SNB-19; 2.87 µM (inactive) with OVCAR-8; 4.27 µM (inactive) with A549; 1.77 µM (inactive) with CCRF-CEM; 7.28 µM (inactive) in the assay with IGROV-1; 4.03 µM (inactive) in the assay on Hs-578T. Further, the GI50 is 5.57 µM (inactive) in the assay with MDA-N; 7.43 µM (inactive) in the assay with TK-10; 4.07 µM (inactive) in the assay with SF-268; 7.69 µM (inactive) with HOP-92; 19.9 µM (inactive) in the assay with SK-MEL-28; 4.56 µM (inactive) in the assay with RXF 393. Further, the GI50 with ACHN is 4.02 µM (inactive); with HOP-62 it was 7.38 µM (inactive); with HCT-116 it was 1.82 µM (inactive); in the assay on NCI-H460 it was 1.31 µM (inactive); in the assay on A498, 15.5 µM (inactive); in the assay on OVCAR-3 it was 8.55 µM (inactive). For the same compound, the GI50 in the assay on NCI-H226 is 10.9 µM (inactive); in the assay with KM12, 0.993 µM (active).

Consider `OC1(c2ccccc2)CCN(Cc2c[nH]c3ccccc23)CC1`, for which the GI50 in the assay on SNB-19, in the assay on OVCAR-8, in the assay with A549, in the assay with CCRF-CEM, in the assay on IGROV-1 and with Hs-578T was > 100 µM (inactive) throughout. Besides, the GI50 with MDA-N is 30.7 µM (inactive); in the assay on TK-10 it was > 100 µM (inactive); with SF-268, > 100 µM (inactive); with HOP-92, > 100 µM (inactive); with SK-MEL-28, 20.7 µM (inactive); in the assay with RXF 393 it was 63.2 µM (inactive). The GI50 in the assay with ACHN is > 100 µM (inactive); in the assay with HOP-62 it was > 100 µM (inactive); in the assay on HCT-116, 40.5 µM (inactive); in the assay with NCI-H460 it was 49.1 µM (inactive); in the assay with A498, 92.3 µM (inactive); in the assay with OVCAR-3 it was > 100 µM (inactive). Further, the results for the GI50 in the assay with NCI-H226 and in the assay with KM12 were > 100 µM (inactive) and 75.3 µM (inactive), respectively.

With `N#Cc1nc(C#N)c(N)[nH]1`, the GI50 in the assay with SNB-19, in the assay with OVCAR-8, in the assay on A549, in the assay on CCRF-CEM, in the assay with IGROV-1 and in the assay with Hs-578T was > 100 µM (inactive) throughout. Further, the GI50 in the assay with MDA-N, with TK-10, with SF-268, in the assay on HOP-92, with SK-MEL-28 and in the assay with RXF 393 was > 100 µM (inactive) throughout. Moreover, the GI50 in the assay with ACHN, in the assay with HOP-62, in the assay on HCT-116, in the assay with NCI-H460, in the assay with A498 and with OVCAR-3 was > 100 µM (inactive) each time. Further, the GI50 with NCI-H226 and in the assay on KM12 was > 100 µM (inactive) in each case.

With `COc1cc(/C=N/N=C2NCCCCN2)ccc1O`, the GI50 with SNB-19, in the assay on OVCAR-8, with A549, with CCRF-CEM, in the assay with IGROV-1 and with Hs-578T was > 100 µM (inactive) each time. Further, the GI50 in the assay with MDA-N, in the assay on TK-10, with SF-268, with HOP-92, in the assay on SK-MEL-28 and in the assay on RXF 393 was > 100 µM (inactive) in each case. The GI50 in the assay on ACHN is > 100 µM (inactive); with HOP-62, > 100 µM (inactive); in the assay on HCT-116, > 100 µM (inactive); with NCI-H460 it was > 100 µM (inactive); with A498, 96.2 µM (inactive); with OVCAR-3 it was > 100 µM (inactive). Also, the GI50 with NCI-H226 and with KM12 was > 100 µM (inactive) in each case.

Regarding `COC(=O)C1=C(O)C(C(=O)OC)[C@@]2(O)[C@@H](C(=O)OC)C(c3ccc(OC(=O)/C=C/c4ccccc4)cc3)C[C@@H]1[C@@H]2C(=O)OC` (stereo not given in full), the GI50 with SNB-19 was 20.6 µM (inactive); with OVCAR-8, 8.69 µM (inactive); in the assay with A549, 12.6 µM (inactive); in the assay with CCRF-CEM it was 2.68 µM (inactive); with IGROV-1, 8.04 µM (inactive); with Hs-578T, 68.4 µM (inactive). Moreover, the GI50 with MDA-N was 3.24 µM (inactive); with TK-10, 6.82 µM (inactive); in the assay on SF-268, 9.79 µM (inactive); with HOP-92, 29.4 µM (inactive); in the assay on SK-MEL-28 it was 20 µM (inactive); in the assay with RXF 393 it was 3.06 µM (inactive). Further, the GI50 with ACHN is 18.9 µM (inactive); with HOP-62, 23.8 µM (inactive); in the assay on HCT-116, 4.24 µM (inactive); in the assay on NCI-H460, 2.64 µM (inactive); in the assay on A498 it was 34.8 µM (inactive); in the assay on OVCAR-3 it was 9.77 µM (inactive). Moreover, the values for the GI50 with NCI-H226 and in the assay on KM12 were 22.6 µM (inactive) and 5.37 µM (inactive), respectively.

Regarding `CN(C)CCn1c(=O)c2ccc(NCCNCCO)c3c(=O)c4cc(O)ccc4n(c1=O)c23`, the GI50 is 1.04 µM (active) in the assay with SNB-19; 1.12 µM (inactive) in the assay with OVCAR-8; 0.607 µM (active) in the assay with A549; 0.258 µM (active) in the assay on CCRF-CEM; 1.05 µM (active) in the assay with IGROV-1; 0.667 µM (active) in the assay with Hs-578T. The GI50 is 2.2 µM (inactive) with MDA-N; 4.63 µM (inactive) in the assay with TK-10; 0.393 µM (active) in the assay with SF-268; 0.61 µM (active) in the assay with HOP-92; 4.43 µM (inactive) in the assay on SK-MEL-28; 0.586 µM (active) with RXF 393. Besides, the GI50 in the assay with ACHN is 0.571 µM (active); in the assay with HOP-62, 0.483 µM (active); with HCT-116, 0.664 µM (active); with NCI-H460, 0.655 µM (active); in the assay with A498 it was 1.93 µM (inactive); in the assay with OVCAR-3 it was 2.55 µM (inactive). The figures for the GI50 in the assay with NCI-H226 and with KM12 were 0.839 µM (active) and 3.57 µM (inactive), respectively.
